The values that follow come from ChEMBL document CHEMBL2429821, “A Casein kinase 1/Checkpoint kinase 1 pyrazolo-pyridine protein kinase inhibitor as novel activator of the p53 pathway” (Bioorg Med Chem Lett, 2013).

The source made the active and inactive calls. No cut-off for these calls is given here.

One may read the IC50 as the concentration needed to halve the response being measured.

The test system of assay [1] is A-375. Kind of assay: Cell cycle arrest in human A375 cells assessed as accumulation at G0-G1 phase at 5 uM after 48 hrs by FACS flow cytometric analysis (reference value: 55.4%). It is filed as functional.
The target in assay [2] is T1, Casein kinase I/MDM2 (Homo sapiens) (UniProt Q00987+P48729). Kind of assay: Inhibition of CK1-MDM2 complex in human A375 cells assessed as decrease in […] protein level at 0.2 to 5 uM after 48 hrs by immunoblotting analysis. Format: cell-based. The settings on record: A-375. In general terms: Immunoblotting shows a protein as a band on a membrane.
T1 sequence (P48729 whole entry, looked up): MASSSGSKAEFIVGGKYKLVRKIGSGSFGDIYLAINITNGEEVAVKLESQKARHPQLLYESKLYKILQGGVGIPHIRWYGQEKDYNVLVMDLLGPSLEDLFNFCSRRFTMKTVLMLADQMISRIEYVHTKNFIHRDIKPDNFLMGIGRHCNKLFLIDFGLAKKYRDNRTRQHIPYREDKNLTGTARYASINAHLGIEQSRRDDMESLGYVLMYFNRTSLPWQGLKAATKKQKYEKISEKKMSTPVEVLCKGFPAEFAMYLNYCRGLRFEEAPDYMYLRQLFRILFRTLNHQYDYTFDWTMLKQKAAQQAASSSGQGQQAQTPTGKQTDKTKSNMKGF
T1 sequence (Q00987 whole entry, looked up): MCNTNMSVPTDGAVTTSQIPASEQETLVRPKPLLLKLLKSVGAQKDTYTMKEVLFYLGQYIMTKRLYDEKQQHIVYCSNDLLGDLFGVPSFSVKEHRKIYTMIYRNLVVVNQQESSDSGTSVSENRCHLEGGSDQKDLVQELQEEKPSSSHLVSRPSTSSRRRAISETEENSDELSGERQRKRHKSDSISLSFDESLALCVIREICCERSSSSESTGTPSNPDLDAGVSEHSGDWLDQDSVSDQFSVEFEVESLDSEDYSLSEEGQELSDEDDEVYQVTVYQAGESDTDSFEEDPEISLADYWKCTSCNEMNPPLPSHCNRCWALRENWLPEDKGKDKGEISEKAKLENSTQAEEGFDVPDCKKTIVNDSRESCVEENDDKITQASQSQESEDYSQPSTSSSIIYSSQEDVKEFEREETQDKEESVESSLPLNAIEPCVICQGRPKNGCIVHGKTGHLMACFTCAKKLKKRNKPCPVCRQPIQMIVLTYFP
Assay [3] has as its system A-375. Description: Cell cycle arrest in human A375 cells assessed as accumulation at sub-G1 phase at 20 uM after 48 hrs by FACS flow cytometric analysis (reference value: 2.17%). It is filed as functional. (Flow cytometry measures light scatter and fluorescence of single cells or particles in a stream.)
The target of assay [4] is Fibroblast growth factor receptor 1 (Homo sapiens, UniProt P11362). Description: Inhibition of human FGFR1 in presence of 20 uM ATP.
Sequence of Fibroblast growth factor receptor 1 (P11362 whole entry): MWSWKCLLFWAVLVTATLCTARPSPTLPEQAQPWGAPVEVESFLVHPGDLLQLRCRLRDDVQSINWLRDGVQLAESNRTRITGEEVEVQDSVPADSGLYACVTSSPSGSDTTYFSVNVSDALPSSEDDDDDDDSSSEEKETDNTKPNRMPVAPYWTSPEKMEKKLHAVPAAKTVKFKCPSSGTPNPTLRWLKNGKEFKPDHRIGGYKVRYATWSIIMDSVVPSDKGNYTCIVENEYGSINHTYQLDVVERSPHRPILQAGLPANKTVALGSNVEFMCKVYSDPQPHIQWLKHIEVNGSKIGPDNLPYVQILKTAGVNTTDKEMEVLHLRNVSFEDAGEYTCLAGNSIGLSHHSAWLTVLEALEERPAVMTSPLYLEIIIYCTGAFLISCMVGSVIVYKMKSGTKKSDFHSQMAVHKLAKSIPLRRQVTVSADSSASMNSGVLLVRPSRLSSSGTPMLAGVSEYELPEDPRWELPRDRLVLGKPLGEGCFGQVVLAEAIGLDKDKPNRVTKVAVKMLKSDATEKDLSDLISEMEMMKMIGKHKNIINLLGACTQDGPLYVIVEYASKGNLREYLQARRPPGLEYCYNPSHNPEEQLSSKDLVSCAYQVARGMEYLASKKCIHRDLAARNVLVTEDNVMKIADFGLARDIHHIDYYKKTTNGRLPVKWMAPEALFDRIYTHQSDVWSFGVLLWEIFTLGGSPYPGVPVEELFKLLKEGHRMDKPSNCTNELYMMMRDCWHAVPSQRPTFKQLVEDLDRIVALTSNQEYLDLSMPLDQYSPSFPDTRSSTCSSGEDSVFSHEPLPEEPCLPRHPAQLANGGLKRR
In assay [5] the test system is A-375. Description: Cell cycle arrest in human A375 cells assessed as accumulation at S phase at 10 uM after 48 hrs by FACS flow cytometric analysis (reference value: 25.1%). It is filed as functional.
Assay [6] deals with T1, Casein kinase I/MDM2 (Homo sapiens). Description: Inhibition of CK1-MDM2 complex in human A375 cells assessed as increase in MDM2 protein level at 0.2 to 5 uM after 48 hrs by immunoblotting analysis. It is filed as cell-based. The conditions noted are these: A-375.
For assay [7], the target named is Serine/threonine-protein kinase Nek2 (Homo sapiens, UniProt P51955). Description: Inhibition of human NEK2alpha in presence of 50 uM ATP.
Sequence of Serine/threonine-protein kinase Nek2 (P51955 whole entry): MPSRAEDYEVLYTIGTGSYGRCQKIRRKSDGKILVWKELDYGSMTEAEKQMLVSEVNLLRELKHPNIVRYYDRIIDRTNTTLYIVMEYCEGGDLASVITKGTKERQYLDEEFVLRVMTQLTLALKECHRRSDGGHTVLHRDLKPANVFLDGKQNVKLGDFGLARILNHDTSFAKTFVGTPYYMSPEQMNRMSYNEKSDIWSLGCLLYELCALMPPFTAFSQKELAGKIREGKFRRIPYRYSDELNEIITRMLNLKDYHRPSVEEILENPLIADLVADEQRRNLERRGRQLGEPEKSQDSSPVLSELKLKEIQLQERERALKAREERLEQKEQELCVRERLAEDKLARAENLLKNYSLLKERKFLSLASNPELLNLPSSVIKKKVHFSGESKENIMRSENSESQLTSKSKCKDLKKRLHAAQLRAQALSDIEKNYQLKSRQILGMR
The subject of assay [8] is A-375. Kind of assay: Cell cycle arrest in human A375 cells assessed as accumulation at sub-G1 phase at 40 uM after 48 hrs by FACS flow cytometric analysis (reference value: 2.17%). Format: functional.
In assay [9] the test system is A-375. Kind of assay: Cell cycle arrest in human A375 cells assessed as accumulation at G0-G1 phase at 40 uM after 48 hrs by FACS flow cytometric analysis (reference value: 55.4%). Format: functional.
In assay [10] the test system is HCT-116. Kind of assay: Cytotoxicity against p53-deficient human HCT116 cells assessed as cell viability at 1 to 32 uM after 24 hrs by MTT assay. Format: functional, cell-based.
In assay [11] the test system is A-375. Description: Cytotoxicity against human A375 cells assessed as reduction in cell number at 5 uM after 24 hrs by light microscopic analysis relative to control. Format: functional, cell-based.
Assay [12] relates to A-375. Kind of assay: Cell cycle arrest in human A375 cells assessed as accumulation at G2-M phase at 40 uM after 48 hrs by FACS flow cytometric analysis (reference value: 17.3%). Format: functional.
Assay [13] relates to A-375. Description: Cell cycle arrest in human A375 cells assessed as accumulation at sub-G1 phase at 5 uM after 48 hrs by FACS flow cytometric analysis (reference value: 2.17%). It is filed as functional.
The test system of assay [14] is A-375. Kind of assay: Cell cycle arrest in human A375 cells assessed as accumulation at sub-G1 phase at 10 uM after 48 hrs by FACS flow cytometric analysis (reference value: 2.17%). It is filed as functional.
Assay [15] deals with A-375. Kind of assay: Cell cycle arrest in human A375 cells assessed as accumulation at S phase at 1 uM after 48 hrs by FACS flow cytometric analysis (reference value: 25.1%). Format: functional.
In assay [16] the test system is A-375. Description: Cell cycle arrest in human A375 cells assessed as accumulation at S phase at 40 uM after 48 hrs by FACS flow cytometric analysis (reference value: 25.1%). Format: functional.
The subject of assay [17] is A-375. Kind of assay: Cell cycle arrest in human A375 cells assessed as accumulation at G0-G1 phase at 1 uM after 48 hrs by FACS flow cytometric analysis (reference value: 55.4%). Format: functional.
Assay [18] deals with Mitogen-activated protein kinase 15 (Homo sapiens, UniProt Q8TD08). Kind of assay: Inhibition of human ERK8 in presence of 5 uM ATP.
Sequence of Mitogen-activated protein kinase 15 (Q8TD08 whole entry): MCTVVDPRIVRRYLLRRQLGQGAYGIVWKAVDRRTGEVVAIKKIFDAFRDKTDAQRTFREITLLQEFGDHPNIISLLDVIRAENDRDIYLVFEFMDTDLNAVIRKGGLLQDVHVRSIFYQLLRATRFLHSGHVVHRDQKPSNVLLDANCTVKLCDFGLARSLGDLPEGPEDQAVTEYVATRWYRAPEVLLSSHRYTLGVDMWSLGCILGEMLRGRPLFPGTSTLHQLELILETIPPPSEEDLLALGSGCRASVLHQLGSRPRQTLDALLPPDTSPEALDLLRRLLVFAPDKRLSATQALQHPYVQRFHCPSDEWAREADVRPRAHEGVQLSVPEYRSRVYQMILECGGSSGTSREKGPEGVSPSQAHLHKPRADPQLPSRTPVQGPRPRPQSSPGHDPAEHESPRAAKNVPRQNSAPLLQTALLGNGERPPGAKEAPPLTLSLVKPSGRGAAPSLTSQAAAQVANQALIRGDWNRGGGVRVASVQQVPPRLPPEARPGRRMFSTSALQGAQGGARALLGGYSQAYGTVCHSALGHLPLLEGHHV
The subject of assay [19] is A-375. Description: Cell cycle arrest in human A375 cells assessed as accumulation at G2-M phase at 1 uM after 48 hrs by FACS flow cytometric analysis (reference value: 17.3%). It is filed as functional.
Assay [20] deals with A-375. Description: Cell cycle arrest in human A375 cells assessed as accumulation at G2-M phase at 5 uM after 48 hrs by FACS flow cytometric analysis (reference value: 17.3%). It is filed as functional.
The subject of assay [21] is A-375. Kind of assay: Cell cycle arrest in human A375 cells assessed as accumulation at G0-G1 phase at 10 uM after 48 hrs by FACS flow cytometric analysis (reference value: 55.4%). It is filed as functional.
Assay [22] deals with T1, Casein kinase I/MDM2 (Homo sapiens). Kind of assay: Inhibition of CK1-MDM2 complex in human A375 cells assessed as increase in p53 protein level at 0.2 to 5 uM after 48 hrs by immunoblotting analysis. It is filed as cell-based. The settings on record: A-375.
Assay [23] deals with A-375. Description: Cell cycle arrest in human A375 cells assessed as accumulation at S phase at 20 uM after 48 hrs by FACS flow cytometric analysis (reference value: 25.1%). It is filed as functional.
Assay [24] deals with T1, Casein kinase I/MDM2 (Homo sapiens). Description: Inhibition of CK1-MDM2 complex in human A375 cells assessed as effect on p21 protein level at 0.2 to 80 uM after 48 hrs by immunoblotting analysis. Format: cell-based. The conditions noted are these: A-375.
Assay [25] has the same target. Description: Inhibition of CK1-MDM2 complex in human A375 cells assessed as effect on MDM2 protein level at 0.2 to 80 uM after 48 hrs by immunoblotting analysis. It is filed as cell-based. The settings on record: A-375.
Assay [26] has the same target. Kind of assay: Inhibition of CK1-MDM2 complex in human A375 cells assessed as effect on p53 protein level at 0.2 to 80 uM after 48 hrs by immunoblotting analysis. Format: cell-based. The conditions noted are these: A-375.
Assay [27] has the same target. Description: Inhibition of CK1-MDM2 complex in human A375 cells assessed as decrease in E2F1 protein level after 48 hrs by immunoblotting analysis. Format: cell-based. The conditions noted are these: A-375.
Assay [28] shares this target. Description: Inhibition of CK1-MDM2 complex in human A375 cells assessed as increase in p21 protein level at 5 to 40 uM compound transfected into cells using attractene carrier after 48 hrs by immunoblotting analysis. The settings on record: A-375. It is filed as cell-based.
Assay [29] deals with A-375. Description: Cytotoxicity against human A375 cells assessed as reduction in cell number at 40 uM after 24 hrs by light microscopic analysis relative to control. Format: functional, cell-based.
Assay [30] concerns the target T1, Casein kinase I/MDM2 (Homo sapiens). Kind of assay: Inhibition of CK1-MDM2 complex in human A375 cells assessed as increase in p53 protein level at 0.2 to 40 uM after 24 hrs by immunoblotting analysis. It is filed as cell-based. The settings on record: A-375.
The target is the same in assay [31]. Description: Inhibition of CK1-MDM2 complex in human A375 cells assessed as increase in […] protein level at 0.2 to 40 uM after 24 hrs by immunoblotting analysis. Format: cell-based. The settings on record: A-375.
The target in assay [32] is T2, Mitogen-activated protein kinase 14 (Homo sapiens, UniProt Q16539). Description: Inhibition of human p38alpha MAPK assessed as residual activity at 10 uM relative to control.
T2 sequence (Q16539 whole entry): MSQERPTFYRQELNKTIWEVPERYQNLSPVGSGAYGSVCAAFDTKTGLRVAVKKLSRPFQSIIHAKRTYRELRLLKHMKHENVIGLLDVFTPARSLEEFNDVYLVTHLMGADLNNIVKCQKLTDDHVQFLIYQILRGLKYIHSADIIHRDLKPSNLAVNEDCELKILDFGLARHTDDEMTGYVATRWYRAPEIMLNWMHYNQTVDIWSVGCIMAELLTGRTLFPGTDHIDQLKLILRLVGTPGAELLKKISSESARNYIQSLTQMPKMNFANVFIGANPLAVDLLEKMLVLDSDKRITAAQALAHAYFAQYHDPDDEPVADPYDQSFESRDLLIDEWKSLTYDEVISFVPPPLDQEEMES
The target of assay [33] is T1, Casein kinase I/MDM2 (Homo sapiens). Description: Inhibition of CK1-MDM2 complex in human A375 cells assessed as effect on p21 protein level at 0.2 to 40 uM after 24 hrs by immunoblotting analysis. Format: cell-based. The settings on record: A-375.
Assay [34] deals with T2, Mitogen-activated protein kinase 14. Description: Inhibition of human p38alpha MAPK assessed as residual activity at 1 uM relative to control.

As to `CC(=O)Nc1cccc(-c2cnc3[nH]nc(C)c3c2)c1`, the Activity in assay [1] stood at 50.8%; in assay [3], 50.5%; in assay [5], 12.6%; in assay [8], 56.7%; in assay [9] it was 16.9%; in assay [12] it was 8.54%. Besides, the Activity is recorded as 19.1% in [13]; 34.3% in [14]; 21.6% in [15]; 14% in [16]; 57.7% in assay [17]; 17.8% in assay [19]. In addition, the results for the Activity in assay [20], in assay [21] and in assay [23] were 15.9%, 39.6% and 14.2%, respectively. Further, the inhibition entry in assay [2], in assay [6] and in assay [22] was “Active” each time. In addition, the IC50 in [4] worked out at 6 µM; in assay [7], 2 µM; in assay [18], 0.4 µM. The outcome in assay [10] and in assay [11] was Active.
In the case of `CC(=O)Nc1nccc(-c2c(-c3ccccc3)noc2C)n1`, the inhibition entry in assay [24], in assay [25], in [26] and in assay [28] was “inactive” throughout. Further, the inhibition entry in [27] was “Dose-dependent effect”. The result in assay [29] was inactive.
As to `CCCC(=O)Nc1n[nH]c2ncc(-c3cccnc3)cc12`, the inhibition entry in [30] and in [31] was “Active” each time. Besides, the Activity was 91% in [32] and 84% in [34]. In [33], the inhibition result is “inactive”.
